Experimental findings from ChEMBL document CHEMBL2146376, “'Inverted' analogs of the antibiotic gramicidin S with an improved biological profile” (Bioorg Med Chem, 2012) are described below.

Structures are written as SMILES. ≈ marks a conversion by molar mass, not a printed value. Square brackets hold non-standard residues; d marks the D form. Peptide text beside a SMILES is read from it. Orn = NCCC[C@H](N)C(=O)O

The test system of data set [1] is Staphylococcus aureus. Kind of data set: Antibacterial activity against Staphylococcus aureus ATCC 29213 after 24 hrs by broth dilution method. The format is functional. Conditions: ATCC 29213, 24 h.
Data set [2] deals with Staphylococcus epidermidis. The experiment in a line: Antibacterial activity against Staphylococcus epidermidis ATCC 12228 after 24 hrs by broth dilution method. The note with it: ATCC 12228, 24 h. The data set is classed as functional.
A further data set has as its system Enterococcus faecalis. Kind of data set: Antibacterial activity against Enterococcus faecalis ATCC 29212 after 24 hrs by broth dilution method. The format is functional. The note with it: ATCC 29212, 24 h.
Another data set has as its system Bacillus cereus. The experiment in a line: Antibacterial activity against Bacillus cereus ATCC 11778 after 24 hrs by broth dilution method. The format is functional. Conditions: ATCC 11778, 24 h.
The next data set relates to Escherichia coli. The experiment in a line: Antibacterial activity against Escherichia coli ATCC 25922 after 24 hrs by broth dilution method. The format is functional. The note with it: ATCC 25922, 24 h.
The test system of another data set is Pseudomonas aeruginosa. The experiment in a line: Antibacterial activity against Pseudomonas aeruginosa ATCC 27853 after 24 hrs by broth dilution method. The note with it: ATCC 27853, 24 h. The data set is classed as functional.
For data set [3], the system named is Staphylococcus aureus. The experiment in a line: Antibacterial activity against PVL-positive and non-typable methicillin-resistant Staphylococcus aureus 1110301981H-T034 after 24 hrs by broth dilution method. The format is functional.
The test system of data set [4] is Staphylococcus aureus. Kind of data set: Antibacterial activity against PVL-deficient and non-typable methicillin-resistant Staphylococcus aureus N133-T034 after 24 hrs by broth dilution method. The note with it: N133-T034, 24 h. The data set is classed as functional.
Data set [5] relates to Staphylococcus aureus. Kind of data set: Antibacterial activity against PVL-deficient and non-typable methicillin-resistant Staphylococcus aureus N229-T034 after 24 hrs by broth dilution method. The data set is classed as functional. Conditions: N229-T034, 24 h.
The subject of data set [6] is Staphylococcus aureus. Kind of data set: Antibacterial activity against PVL-positive and non-typable methicillin-resistant Staphylococcus aureus USA300-1110301146 after 24 hrs by broth dilution method. The note with it: USA300-1110301146, 24 h. The format is functional.
Data set [7] is described as follows: Toxicity in human erythrocytes assessed as concentration required to achieve 100% hemolysis after 4 hrs. The format is cell-based. The note with it: erythrocyte.

On to `CC(C)C[C@@H]1NC(=O)[C@H](CCCN)NC(=O)[C@@H]2CCCN2C(=O)[C@@H](Cc2ccccc2)NC(=O)[C@H](CCCN)NC(=O)[C@H](CC(C)(C)C)NC(=O)[C@H](CCCN)NC(=O)[C@@H]2CCCN2C(=O)[C@@H](Cc2ccccc2)NC(=O)[C@H](CCCN)NC1=O`, for which the MIC against Staphylococcus aureus [1] was greater than 64 µg/mL; in data set [2], 16 µg/mL (≈ 13.5 µM); in the data set with Enterococcus faecalis, greater than 64 µg/mL; in the data set with Bacillus cereus it was greater than 64 µg/mL; against Escherichia coli, greater than 64 µg/mL; with Pseudomonas aeruginosa it was greater than 64 µg/mL. In addition, the MIC in the data set with Staphylococcus aureus [3], with Staphylococcus aureus [4], with Staphylococcus aureus [5] and in the data set on Staphylococcus aureus [6] was greater than 64 µg/mL each time. In addition, the Activity in data set [7] is greater than 500 µM.
With `CCCCCCCCCC[C@@H]1NC(=O)[C@H](CCCN)NC(=O)[C@@H]2CCCN2C(=O)[C@@H](Cc2ccccc2)NC(=O)[C@H](CCCN)NC(=O)[C@H](C(C)C)NC(=O)[C@H](CCCN)NC(=O)[C@@H]2CCCN2C(=O)[C@@H](Cc2ccccc2)NC(=O)[C@H](CCCN)NC1=O`, the MIC stood at 16 µg/mL (≈ 12.9 µM) against Staphylococcus aureus [1]; 8 µg/mL (≈ 6.44 µM) in data set [2]; 16 µg/mL (≈ 12.9 µM) with Enterococcus faecalis; 4 µg/mL (≈ 3.22 µM) against Bacillus cereus; 16 µg/mL (≈ 12.9 µM) with Escherichia coli; 16 µg/mL (≈ 12.9 µM) with Pseudomonas aeruginosa. Also, the MIC against Staphylococcus aureus [3] is 16 µg/mL (≈ 12.9 µM); against Staphylococcus aureus [4] it was 8 µg/mL (≈ 6.44 µM); in the data set on Staphylococcus aureus [5], 8 µg/mL (≈ 6.44 µM); with Staphylococcus aureus [6], 8 µg/mL (≈ 6.44 µM). For the same compound, in data set [7], the Activity was 500 µM.
As for `CC(C)(C)C[C@@H]1NC(=O)[C@H](CCCN)NC(=O)[C@@H]2CCCN2C(=O)[C@@H](Cc2ccccc2)NC(=O)[C@H](CCCN)NC(=O)[C@H](CC23CC4CC(CC(C4)C2)C3)NC(=O)[C@H](CCCN)NC(=O)[C@@H]2CCCN2C(=O)[C@@H](Cc2ccccc2)NC(=O)[C@H](CCCN)NC1=O`, the MIC in the data set with Staphylococcus aureus [1] is 16 µg/mL (≈ 12.5 µM); in data set [2], 4 µg/mL (≈ 3.13 µM); against Enterococcus faecalis, 32 µg/mL (≈ 25 µM); against Bacillus cereus it was 4 µg/mL (≈ 3.13 µM); in the data set on Escherichia coli, 16 µg/mL (≈ 12.5 µM); against Pseudomonas aeruginosa it was 16 µg/mL (≈ 12.5 µM). Besides, the MIC with Staphylococcus aureus [3], in the data set with Staphylococcus aureus [4], against Staphylococcus aureus [5] and against Staphylococcus aureus [6] was 16 µg/mL (≈ 12.5 µM) in each case. Moreover, the Activity in data set [7] turned out to be 500 µM.
Consider `CC(C)C[C@@H]1NC(=O)[C@H](CCCN)NC(=O)[C@@H]2CCCN2C(=O)[C@@H](Cc2ccccc2)NC(=O)[C@H](CCCN)NC(=O)[C@H](CC23CC4CC(CC(C4)C2)C3)NC(=O)[C@H](CCCN)NC(=O)[C@@H]2CCCN2C(=O)[C@@H](Cc2ccccc2)NC(=O)[C@H](CCCN)NC1=O`, for which the MIC turned out to be 64 µg/mL (≈ 50.6 µM) in the data set on Staphylococcus aureus [1]; 4 µg/mL (≈ 3.17 µM) in data set [2]; 64 µg/mL (≈ 50.6 µM) with Enterococcus faecalis; 16 µg/mL (≈ 12.7 µM) against Bacillus cereus; 64 µg/mL (≈ 50.6 µM) in the data set on Escherichia coli; 16 µg/mL (≈ 12.7 µM) with Pseudomonas aeruginosa. Besides, the MIC came out at 64 µg/mL (≈ 50.6 µM) in the data set on Staphylococcus aureus [3], 32 µg/mL (≈ 25.3 µM) with Staphylococcus aureus [4], 32 µg/mL (≈ 25.3 µM) in the data set on Staphylococcus aureus [5] and 32 µg/mL (≈ 25.3 µM) in the data set with Staphylococcus aureus [6]. The Activity in [7] was greater than 500 µM.
Turning to `CC(C)C[C@@H]1NC(=O)[C@H](CCCN)NC(=O)[C@H](C(C)C)NC(=O)[C@@H]2CCCN2C(=O)[C@@H](Cc2ccccc2)NC(=O)[C@H](CC(C)C)NC(=O)[C@H](CCCN)NC(=O)[C@H](C(C)C)NC(=O)[C@@H]2CCCN2C(=O)[C@@H](Cc2ccccc2)NC1=O` [GRAMICIDIN S] (cyclo(L[dF]PV[Orn]L[dF]PV[Orn])), the MIC was 8 µg/mL (≈ 7.01 µM) against Staphylococcus aureus [1]; 8 µg/mL (≈ 7.01 µM) in data set [2]; 16 µg/mL (≈ 14 µM) against Enterococcus faecalis; 8 µg/mL (≈ 7.01 µM) against Bacillus cereus; 32 µg/mL (≈ 28 µM) in the data set with Escherichia coli; 64 µg/mL (≈ 56.1 µM) against Pseudomonas aeruginosa. The MIC in the data set with Staphylococcus aureus [3], against Staphylococcus aureus [4], against Staphylococcus aureus [5] and against Staphylococcus aureus [6] was 8 µg/mL (≈ 7.01 µM) each time. Further, the Activity in data set [7] turned out to be 31.3 µM.
